Laboratory results reported in the pKa sets of Baltruschat and Czodrowski (2020).

conditions: basic group

SMILES	pKa
O=C([O-])[C@@H]1O[C@H](Oc2cccc3ncccc23)[C@@H](O)[C@H](O)[C@H]1O	4.91
Cc1nc2c(C)ccc([N+](=O)[O-])c2c(NCCC[NH+](C)C)c1C	6.67
Nc1cccc2c1ccc1ncccc12	5.2
CN(CCCN)CCC[NH3+]	9.27
Nc1cc([N+](=O)[O-])cc2ccccc12	2.24
Cc1c2ccncc2cc2c1[nH]c1cc[nH+]cc12	5.3
CCOc1ccc2[nH]c(CC)nc2c1	6.27
C1CNCCSCC[NH2+]C1	3.23
ClCC1CC2CCN1CC2 (configuration not stated)	9.68
CN(CO)c1ccccc1	3.72
[O-]c1ccc2ccccc2n1	11.7
Cc1cc([O-])[nH+]cn1	2.15
C1CCN(CCCN2CCCCC2)CC1	10.1
Nc1ccc2[nH+]cccc2c1	1.63
O=[N+]([O-])c1ccc2[nH]ncc2c1	0.13
C[NH+](C)CCNc1c2ccccc2nc2cccc([N+](=O)[O-])c12	4.9
NC(=O)C(c1ccccc1)c1ccccn1 (configuration not stated)	3.8
CCN(CC)CCS(=O)(=O)c1ccc(OC)c(OC)c1OC	7.41
CC(=O)c1cccnc1	3.32
CN(C)c1nc2c(s1)CCCC2	6.16
CCCCCCCCCCCCCCN	10.6
CC(=O)N=S(C)C	3.16

SMILES	pKa
N/C=N/O	5.05
CC1CCCC(C)(C)N1 (configuration not stated)	11.3
[S-]c1ncc2nc[nH]c2n1	7.15
NNC(=O)C[NH3+]	2.38
CNCC(C)c1ccccc1 (configuration not stated)	9.87
Cc1cc(C)c(C[NH3+])cc1N	4.57
NCC(F)F	7.09
c1ccc2c(c1)NCC[NH2+]2	2.11
Oc1ccccc1CN1CCCC1	8.81
CC[C@H](C)[C@H](N)C(=O)[O-]	9.77
O=[N+]([O-])c1ccc(-c2ncc(-c3ccccc3)o2)cc1	-0.61
Cc1cc(-c2ncc[nH]2)n[nH]1	6.16
c1c[nH]c(P(c2[nH]cc[nH+]2)c2[nH]cc[nH+]2)n1	5.26
[Se-]c1ncnc2nc[nH]c12	7.33
CCN(CC)/N=C(\N)CC[Si](C)(C)C	10.7
CC(C)CSCCN	8.73
[NH3+][C@@H](Cc1c[nH]cn1)C(=O)N[C@@H](Cc1c[nH]cn1)C(=O)[O-]	6.8
Nc1ccc2c(c1)CCC2	5.35
Cc1cc(C)n(Cc2cc(C)n(C)n2)n1	3.39
CCN(CC)CCN	9.93
NCCC#CC#CCCC(=O)[O-]	9.27
COC(=O)C1=CN2CCC1CC2	7.17

SMILES	pKa
Cc1ccc2[nH]cnc2c1	5.81
Nc1ccc(C(=O)[O-])c2ncccc12	8.46
Cn1ncc2c(Nc3ccccc3)ncnc21	3.53
C[NH+](C)C[C@@H]1[C@@H](N)[C@]2(C)CC[C@@H]1C2(C)C	7.5
COc1cccc(C2NCCS2)c1 (configuration not stated)	5.12
O=C([O-])c1ccnc2ccccc12	4.76
NCCCCC[NH3+]	9.73
C1CCN(C2CCNCC2)CC1	10.7
Cn1c(=O)c2[nH]cnc2n(C)c1=O	8.64
NCCCCCC#CC#CCCC(=O)[O-]	10.7
CCCCc1cccnn1	3.49
CCN(CC)CCOCC[NH+](CC)CC	8.61
C(=C\c1ccncc1)/c1ccccc1	5.97
Nc1ncnc2cn[nH]c12	5
OCCCCc1cccnc1	5.7
O=C([O-])[C@H](NCCN[C@@H](C(=O)[O-])c1ccccc1[O-])c1ccccc1[O-]	12.1
Cc1ccc2c(c1)N1CC[NH+]2CC1	2.4
c1ccc2c(c1)CNCCCNCc1ccccc1OCCCO2	10
COc1cc(S(C)=O)ccc1-c1nc2cnncc2[nH]1 (configuration not stated)	3.81
CC1CCCN(C(C)C=C(c2cccs2)c2cccs2)C1 (configuration not stated)	8.28
Cc1c2ccncc2cc2c1[nH]c1ccncc12	7.5
C=Cc1c(C)c2cc3nc(c(CC(=O)OC)c4[nH]c(cc5nc(cc1[nH]2)C(C)=C5CC)c(C)c4C(=O)NCC)[C@@H](CCC(=O)OC)[C@@H]3C	2.7

SMILES	pKa
CCCNc1ccccc1	5.12
O=C([O-])c1ccc2nc3ccccc3cc2c1	5.22
NC12CCC(CC1)C2	10.2
CCN(CC)Cc1cc([N+](=O)[O-])ccc1[O-]	11
CC(C)(C)C(=O)n1cnc2ccccc21	2
Cc1cnc(C)c(C)[nH+]1	-3.6
Nc1cccnn1	5.19
NCC(N)=S	7.27
CCCCCCCN	10.3
COc1cc(S(C)=O)ccc1-c1nc2ccccc2[nH]1 (configuration not stated)	4.76
Cc1ccc2c(c1)NCCN2	4.97
Cc1c[nH+]c([O-])nc1N	4.69
Nc1nc2cc3ccccc3cc2[nH]1	7.01
O=C([O-])c1cccnc1	4.83
Nc1cccc2ccc3ncccc3c12	5.03
CCc1ccc([C@@H]2CCC[NH+]2C)cn1	3.69
CC(C)(C)N1NC2CCC1C21CC1 (configuration not stated)	9.33
CC(O)CNCC(C)O (configuration not stated)	8.88
[O-]c1nc(C(F)(F)F)nc2nc[nH]c12	5.1
CCC(O)CN(CC(C)O)C(C)(C)C (configuration not stated)	9.5
Nc1ncnc2ccccc12	5.79
